In ChEMBL document CHEMBL1201862, “PubChem BioAssay data set” (2004):
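Grown in 96-well plates, cells were treated for 48 hours with each compound at five concentrations. Insufficient inhibition: endpoint recorded as highest concentration tested. GI50: concentration for 50% inhibition of growth.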 Active and inactive are the calls of the source. Cut-off read from the data, not from the text of the source: active = GI50 up to about 1.1 µM and inactive = higher.

Key:
Assay in all cases: NCI tumour cell line growth inhibition, 48 h
SF-268 = test system: SF-268
A498 = test system: A498
786-0 = test system: 786-0
HCC 2998 = test system: HCC 2998
Malme-3M = test system: Malme-3M
LOX IMVI = test system: LOX IMVI
HT-29 = test system: HT-29
HCT-15 = test system: HCT-15
SR = test system: SR
OVCAR-3 = test system: OVCAR-3
OVCAR-4 = test system: OVCAR-4
SK-MEL-28 = test system: SK-MEL-28
SNB-78 = test system: SNB-78
SF-539 = test system: SF-539
UO-31 = test system: UO-31
K562 = test system: K562
RPMI-8226 = test system: RPMI-8226
HOP-62 = test system: HOP-62
SF-295 = test system: SF-295
UACC-257 = test system: UACC-257

Row | Structure (SMILES) | GI50 (SF-268) | GI50 (A498) | GI50 (786-0) | GI50 (HCC 2998) | GI50 (Malme-3M) | GI50 (LOX IMVI) | GI50 (HT-29) | GI50 (HCT-15) [µM] | GI50 (SR) | GI50 (OVCAR-3) | GI50 (OVCAR-4) | GI50 (SK-MEL-28) | GI50 (SNB-78) | GI50 (SF-539) | GI50 (UO-31) | GI50 (K562) | GI50 (RPMI-8226) | GI50 (HOP-62) | GI50 (SF-295) | GI50 (UACC-257)
1 | CNC(=O)CN(CC(N)=O)C(N)=O | > 100 µM (inactive) | > 100 µM (inactive) | > 100 µM (inactive) | > 100 µM (inactive) | > 100 µM (inactive) | > 100 µM (inactive) | > 100 µM (inactive) | > 100 | > 100 µM (inactive) | > 100 µM (inactive) | > 100 µM (inactive) | > 100 µM (inactive) | > 100 µM (inactive) | > 100 µM (inactive) | > 100 µM (inactive) | > 100 µM (inactive) | > 100 µM (inactive) | > 100 µM (inactive) | > 100 µM (inactive) | 
2 | CCOC(=O)C12CN(C34CC5CC(CC(C5)C3)C4)CC(C(=O)OCC)(C1=O)C(c1ccccc1)OC2c1ccccc1 (stereo not given) | > 100 µM (inactive) | > 100 µM (inactive) | > 100 µM (inactive) | > 100 µM (inactive) | > 100 µM (inactive) | 3.54 µM (inactive) | 61 µM (inactive) | > 100 |  | > 100 µM (inactive) | 23 µM (inactive) | > 100 µM (inactive) | > 100 µM (inactive) | > 10 µM (inactive) | > 100 µM (inactive) | 31.4 µM (inactive) | 16.5 µM (inactive) | > 100 µM (inactive) | > 100 µM (inactive) | > 100 µM (inactive)
3 | CN(C)CCCN1CCc2c([nH]c3ccccc23)C1c1cccnc1 (stereo not given) |  | > 100 µM (inactive) | > 100 µM (inactive) | > 100 µM (inactive) | > 100 µM (inactive) | > 100 µM (inactive) | > 100 µM (inactive) | > 100 | > 100 µM (inactive) | > 100 µM (inactive) | > 100 µM (inactive) | 80 µM (inactive) | > 100 µM (inactive) | > 100 µM (inactive) | > 100 µM (inactive) | > 100 µM (inactive) | > 100 µM (inactive) | > 100 µM (inactive) | > 100 µM (inactive) | > 100 µM (inactive)
4 | CCCCN(CCCC)C(=Nc1ccccc1)N(CCCC)CCCC | 11.2 µM (inactive) | 9.62 µM (inactive) | 3.3 µM (inactive) | 4.32 µM (inactive) | 7.94 µM (inactive) | 3.15 µM (inactive) | 2.36 µM (inactive) |  |  | 3.3 µM (inactive) |  | 3.1 µM (inactive) | 11.1 µM (inactive) | 11.4 µM (inactive) | 2.81 µM (inactive) | 2.09 µM (inactive) | 1.8 µM (inactive) | 6.87 µM (inactive) | 5.38 µM (inactive) | 7.41 µM (inactive)
5 | Nc1n/c(=N\c2ccccc2)ss1 | > 100 µM (inactive) | > 100 µM (inactive) | > 100 µM (inactive) | > 100 µM (inactive) | > 100 µM (inactive) | 51.4 µM (inactive) | > 100 µM (inactive) |  | > 100 µM (inactive) | > 100 µM (inactive) | > 100 µM (inactive) | > 100 µM (inactive) | > 100 µM (inactive) | > 100 µM (inactive) | > 100 µM (inactive) | 78 µM (inactive) | > 100 µM (inactive) | > 100 µM (inactive) | > 100 µM (inactive) | > 100 µM (inactive)
6 | O=C(c1ccccc1)C1S(=O)(=O)OCCOS1(=O)=O | > 100 µM (inactive) |  | > 100 µM (inactive) | > 100 µM (inactive) | > 100 µM (inactive) | > 100 µM (inactive) | > 100 µM (inactive) |  | > 100 µM (inactive) | > 100 µM (inactive) | > 100 µM (inactive) | > 100 µM (inactive) | > 100 µM (inactive) | > 100 µM (inactive) | > 100 µM (inactive) | > 100 µM (inactive) | > 100 µM (inactive) | > 100 µM (inactive) | > 100 µM (inactive) | > 100 µM (inactive)
7 | COc1ccccc1NC(=O)CC(=O)n1nc(C)c(/N=N/c2ccccc2C(=O)O)c1C | > 100 µM (inactive) | 90.4 µM (inactive) | > 100 µM (inactive) | > 100 µM (inactive) | > 100 µM (inactive) | > 100 µM (inactive) | > 100 µM (inactive) | > 100 |  | 73.1 µM (inactive) | > 100 µM (inactive) | > 100 µM (inactive) | > 100 µM (inactive) | > 100 µM (inactive) | 48.6 µM (inactive) | 97.1 µM (inactive) | > 100 µM (inactive) | 85.9 µM (inactive) | > 100 µM (inactive) | > 100 µM (inactive)
8 | Cc1ccc(/C=N/NS(=O)(=O)c2ccccc2)cc1C | > 100 µM (inactive) | 59.4 µM (inactive) | > 100 µM (inactive) | > 100 µM (inactive) | > 100 µM (inactive) | 88.1 µM (inactive) | > 100 µM (inactive) | > 100 | 86.7 µM (inactive) | > 100 µM (inactive) | > 100 µM (inactive) | > 100 µM (inactive) | > 100 µM (inactive) | > 100 µM (inactive) | > 100 µM (inactive) | > 100 µM (inactive) | > 100 µM (inactive) | > 100 µM (inactive) | 45.7 µM (inactive) | > 100 µM (inactive)
9 | O=C1C2C=CC(n3[nH]c(=O)n(Cc4ccccc4)c3=O)CC2C(=O)N1c1ccc(Br)cc1 (stereo not given) | > 100 µM (inactive) | 56.8 µM (inactive) | > 100 µM (inactive) | > 100 µM (inactive) | > 100 µM (inactive) | > 100 µM (inactive) | > 100 µM (inactive) | > 100 | > 100 µM (inactive) | > 100 µM (inactive) | > 100 µM (inactive) | > 100 µM (inactive) | > 100 µM (inactive) | > 100 µM (inactive) | > 100 µM (inactive) | > 100 µM (inactive) | > 100 µM (inactive) | > 100 µM (inactive) | > 100 µM (inactive) | > 100 µM (inactive)
10 | COC(=O)c1nc(NC#N)nc(O)c1C | > 78.9 µM (inactive) | > 100 µM (inactive) | > 100 µM (inactive) | > 100 µM (inactive) | > 100 µM (inactive) | > 100 µM (inactive) | > 100 µM (inactive) | > 87.3 |  | > 100 µM (inactive) | > 100 µM (inactive) | > 100 µM (inactive) | > 60.5 µM (inactive) | > 55.8 µM (inactive) | > 51.8 µM (inactive) | 34.9 µM (inactive) | 98.9 µM (inactive) | > 100 µM (inactive) | > 100 µM (inactive) | > 100 µM (inactive)
11 | N#CC(C(=O)CCC(=O)Nc1ccc(Cl)c(Cl)c1)c1ccc(Cl)cc1 (stereo not given) | > 100 µM (inactive) | > 100 µM (inactive) | > 100 µM (inactive) | > 100 µM (inactive) | > 100 µM (inactive) | > 100 µM (inactive) | > 100 µM (inactive) | 17.1 |  | > 100 µM (inactive) | > 100 µM (inactive) | > 100 µM (inactive) | > 100 µM (inactive) | > 100 µM (inactive) | 75.2 µM (inactive) | 14.6 µM (inactive) | 48.2 µM (inactive) | > 100 µM (inactive) | 69.5 µM (inactive) | > 100 µM (inactive)
12 | CCOc1ccc(NC(=O)C2=C(C)NC(C)=C(C(=O)Nc3ccc(OCC)cc3)C2c2ccc([N+](=O)[O-])cc2)cc1 | 27.4 µM (inactive) | 6.32 µM (inactive) | 29.3 µM (inactive) | 22.1 µM (inactive) | 24.4 µM (inactive) | 42 µM (inactive) | 33.9 µM (inactive) |  |  | 30.3 µM (inactive) | 9.29 µM (inactive) | 34.2 µM (inactive) | 34.1 µM (inactive) | 24.3 µM (inactive) | 17.7 µM (inactive) | 23.3 µM (inactive) | 13.8 µM (inactive) | 36.1 µM (inactive) | 38 µM (inactive) | 39.2 µM (inactive)
13 | O=C(Nc1ccccc1-c1nn(C(=S)Nc2ccccc2)c(=S)n(C(=S)Nc2ccccc2)c1=O)C(F)(F)F | 26.5 µM (inactive) | 22.1 µM (inactive) | 32.1 µM (inactive) | 25.3 µM (inactive) | 30.5 µM (inactive) | 19.8 µM (inactive) | 27.7 µM (inactive) | 20.1 |  | 21.6 µM (inactive) | 17.1 µM (inactive) | 27.6 µM (inactive) | 35.4 µM (inactive) | 36.1 µM (inactive) | 11.9 µM (inactive) | 18.8 µM (inactive) | 11.1 µM (inactive) | 29.3 µM (inactive) | 31.3 µM (inactive) | 14.2 µM (inactive)
14 | O=c1[nH]c(=O)n(C2OC(CO)C(O)C2O)cc1OCC(F)(F)F (stereo not given) | > 100 µM (inactive) | > 100 µM (inactive) | > 100 µM (inactive) | > 100 µM (inactive) | > 100 µM (inactive) | > 100 µM (inactive) | > 100 µM (inactive) | > 100 | > 100 µM (inactive) | > 100 µM (inactive) | > 100 µM (inactive) | > 100 µM (inactive) | > 100 µM (inactive) | > 100 µM (inactive) | > 100 µM (inactive) | > 100 µM (inactive) | > 100 µM (inactive) | > 100 µM (inactive) | > 100 µM (inactive) | > 100 µM (inactive)
15 | CC(=O)OC1CC[C@@]2(C)C(CC[C@]3(C)C2CC=C2[C@@H]4C(C)[C@H](C)CCC4(C)CCC23C)[C@@]1(C)C(=O)O (stereo not given in full) | 23.5 µM (inactive) | 19.5 µM (inactive) | 23.2 µM (inactive) | 19.1 µM (inactive) | 24.2 µM (inactive) | 20.9 µM (inactive) | 21.2 µM (inactive) | 17.6 | 27.9 µM (inactive) | 18.9 µM (inactive) | 26 µM (inactive) | 23.7 µM (inactive) | 26.5 µM (inactive) | 21.4 µM (inactive) | 20.7 µM (inactive) | 25.9 µM (inactive) | 21.9 µM (inactive) | 20.7 µM (inactive) | 17.6 µM (inactive) | 21 µM (inactive)
